The term Kd denotes a measure of binding affinity in units of concentration. Low values mean higher affinity, high ones lower affinity. For orientation: IC50 means the concentration needed to halve the response being measured. Read a high IC50 as weaker potency in that assay.

We go through three compounds from PMC9967108 (Viruses, 2023).

One experiment addresses main protease (Severe acute respiratory syndrome coronavirus 2, UniProt P0DTD1). As to the kind of experiment: Dissociation constant (KD) test by fluorescence titration. It is filed as binding, SARS-CoV-2. Conditions: inhibitor titration, intrinsic fluorescence, Scatchard plot.
The target in a further experiment is SARS-CoV-2 Mpro (Severe acute respiratory syndrome coronavirus 2, UniProt P0DTD1). As to the kind of experiment: Mpro protease activity assay (IC50 test, fluorogenic substrate).

Take `Cc1cc(CNC(=O)Nn2cnc3ccccc32)ccc1F` [CP-1]: the Kd at main protease was 5.08 ± 0.38 µM. At SARS-CoV-2 Mpro, this compound showed an IC50 of 18.5 µM.

`Cc1ccc(C2CC(c3cccs3)=NN2C(=O)CSc2nnc(CNC(=O)c3ccco3)n2-c2cccc(Cl)c2)cc1` (stereo not drawn) [LC24-20]: binding on main protease was characterised by a dissociation constant (Kd) of 20 ± 1.27 µM. Further, at SARS-CoV-2 Mpro, the IC50 was found to be 32.9 µM.

At main protease, `Cc1ccc(CNC(=O)C2CC(n3cnnn3)CN2Cc2ccc(OCc3ccccc3)cc2)cc1` (stereo not drawn) [CB-25] showed a Kd of 10.8 ± 1.32 µM. This compound had an IC50 at SARS-CoV-2 Mpro of 22.7 µM.
